Source: the NIST ThermoML archive (doi:10.1016/j.jct.2016.10.047)

Assay: refractive index (other wavelength) (dimensionless); xn = mol fraction of the nth substance listed
Conditions: 94 kPa, Liquid, Wavelength=632.8 nm, minimum deviation method

CCCCCCCC[n+]1ccn(C)c1.F[P-](F)(F)(F)(F)F [1-octyl-3-methylimidazolium hexafluorophosphate] + CC(C)O
Conditions	refractive index
298.19 K, x1 = 1	1.4215
300.2 K, x1 = 1	1.421
302.19 K, x1 = 1	1.4204
304.2 K, x1 = 1	1.4199
306.22 K, x1 = 1	1.4193
307.22 K, x1 = 0.5	1.4091
307.22 K, x1 = 0.8	1.4159
307.28 K, x1 = 0.901	1.4177
307.29 K, x1 = 0.601	1.4119
307.3 K, x1 = 0.4	1.4056
307.3 K, x1 = 0.699	1.4141
307.41 K, x1 = 0.3	1.4009
308.19 K, x1 = 0.699	1.4138
308.21 K, x1 = 0.5	1.4088
308.21 K, x1 = 0.601	1.4116
308.23 K, x1 = 0.901	1.4174
308.24 K, x1 = 1	1.4188
308.25 K, x1 = 0.8	1.4156
308.29 K, x1 = 0.4	1.4053
308.4 K, x1 = 0.3	1.4006
309.22 K, x1 = 0.5	1.4085
309.24 K, x1 = 0.601	1.4113
309.24 K, x1 = 0.8	1.4154
309.25 K, x1 = 0.901	1.4171
309.27 K, x1 = 0.699	1.4135
309.35 K, x1 = 0.4	1.405
309.39 K, x1 = 0.3	1.4003
309.47 K, x1 = 0.2	1.3938
310.24 K, x1 = 0.601	1.411
310.25 K, x1 = 0.5	1.4082
310.25 K, x1 = 0.8	1.4151
310.25 K, x1 = 1	1.4183
310.31 K, x1 = 0.699	1.4132
310.34 K, x1 = 0.901	1.4168
310.36 K, x1 = 0.4	1.4047
310.42 K, x1 = 0.3	1.3999
310.45 K, x1 = 0.2	1.3934
310.49 K, x1 = 0.1	1.3838
311.23 K, x1 = 0.601	1.4107
311.24 K, x1 = 0.5	1.4079
311.25 K, x1 = 0.699	1.413
311.25 K, x1 = 0.901	1.4166
311.26 K, x1 = 0.8	1.4148
311.36 K, x1 = 0.4	1.4044
311.46 K, x1 = 0.3	1.3996
311.48 K, x1 = 0.2	1.3931
311.5 K, x1 = 0.1	1.3834
312.22 K, x1 = 0.8	1.4146
312.24 K, x1 = 0.601	1.4104
312.24 K, x1 = 1	1.4178
312.25 K, x1 = 0.5	1.4076
312.26 K, x1 = 0.699	1.4127
312.35 K, x1 = 0.901	1.4163
312.37 K, x1 = 0.4	1.4041
312.4 K, x1 = 0.3	1.3993
312.47 K, x1 = 0.2	1.3927
312.49 K, x1 = 0.1	1.383
313.21 K, x1 = 0.601	1.4101
313.25 K, x1 = 0.8	1.4143
313.26 K, x1 = 0.5	1.4073
313.26 K, x1 = 0.901	1.416
313.35 K, x1 = 0.4	1.4038
313.37 K, x1 = 0.699	1.4124
313.43 K, x1 = 0.3	1.399
313.49 K, x1 = 0.2	1.3924
313.52 K, x1 = 0.1	1.3826
314.23 K, x1 = 0.601	1.4098
314.23 K, x1 = 0.699	1.4121
314.27 K, x1 = 0.5	1.407
314.29 K, x1 = 0.8	1.414
314.29 K, x1 = 0.901	1.4157
314.39 K, x1 = 0.4	1.4035
314.46 K, x1 = 0.3	1.3986
314.48 K, x1 = 0.2	1.392
314.54 K, x1 = 0.1	1.3822
315.58 K, x1 = 0.1	1.3818
315.58 K, x1 = 0.2	1.3916
